Data taken from patent US20250189514A1 (priority 2022, published 2025).
Read-outs that look alike come from different tables or passages of the source. Where no end group is shown, it is not given here.

Tests used:
[1] = test system: α6/3β2β3 nAChR
Method: In one embodiment, FLIPR assay is used to identify agonists of 6β2β3 nAChR (including chimeric α6/3β2β3 nAChR as described above) mediated calcium flux. In this assay, the recombinant cells are incubated with a calcium sensitive dye (such as Ca5), exposed to a test compound, and calcium flux is imaged by FLIPR^TETRA.
• Spin down cells at 300×G for 5 min, aspirate supernatant, and resuspend in 10 ml plating medium. • Seed 25,000 cells/well in 50 μL (5×10^5cells/mL). • Incubate plates for 24 hours at 30° C. with 5% CO2 in a humidified atmosphere. Day 4 FLPR Assay • Wash plate with plate washer (4 washes x 100 μL/wash) using compound dilution buffer, leaving 25 μl in each well. • Add 25 μl of 2× Ca5 dye to each well. • Incubate at room temperature for 1 hr. • Wash plate with plate washer (4 washes x 100 μL/wash) using compound dilution buffer, leaving 25 μL in each well.
• Transfer plates to FLIPR for compound addition. Single addition plate of 2× agonist (25 μL). Control wells for agonists will be in column 23 and 24. […] Negative control wells received buffer+vehicle (25 μL). Functional Expression of α6β2β3 nAChR

[2] = test system: α6/3β2β3 nAChR; type: cell-based, human

Molecule: CN1CCCC1c1cccnc1 (stereo not shown) [nicotine]
- nicotine EC80 ([1]; 2nd addition in concentration response curve experiment): 236 nm
- EC80 nicotine ([1]; concentration used as agonist challenge in antagonist protocol): 236 nM

Molecule: α-conotoxin MII (GCCSNPVCHLEHSNLC; ends and bridges not checked; cysteine pairing not given here; UniProt P56636 49-64, looked up)
- effect on nicotine-evoked calcium flux (FLIPR signal) [2]: decreases the nicotine-evoked calcium flux in a dose-dependent manner

Molecule: CNC1(C)C2CCC(C2)C1(C)C (stereo not shown) [mecamylamine]
- effect on nicotine-evoked calcium flux (FLIPR signal) ([2]; transfected HEK293T cells incubated at 30° C. for 24-48 hour, antagonist at various concentration 3 min, then nicotine EC80 3.5 min, FIGS. 2A-2D): decreases the nicotine-evoked calcium flux in a dose-dependent manner

Molecule: CO[C@H]1CC=C2CCN3CCC4=C(CC(=O)OC4)[C@]23C1 [DHbE]
- IC100 DHBe [2]: 10 µM
- effect on nicotine-evoked calcium flux (FLIPR signal) [2]: decreases the nicotine-evoked calcium flux in a dose-dependent manner

Molecule: CCN1C[C@]2(COC(=O)c3ccccc3N3C(=O)C[C@H](C)C3=O)CC[C@H](OC)[C@@]34[C@@H]5C[C@H]6[C@H](OC)[C@@H]5[C@](O)(C[C@@H]6OC)[C@](O)([C@@H](OC)[C@H]23)[C@@H]14 [MLA]
- effect on nicotine-evoked calcium flux (FLIPR signal) [2]: decreases the nicotine-evoked calcium flux in a dose-dependent manner
